Results from PMC6271731, “Multitarget Molecular Hybrids of Cinnamic Acids” (Molecules, 2014).

Legend:
[1] = Lipophilicity as RM values by RP-TLC; assay type: physicochemical; conditions: methanol/water 70/30, 24 °C, average of at least five measurements
Outline: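 RP-TLC on silica gel impregnated with 5% (v/v) liquid paraffin, developed with methanol/water 70/30 (v/v) in saturated tanks at 24 °C; UV detection. RM calculated from Rf (five measurements) as RM = log[(1/Rf) − 1].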

[2] = target: T1, soybean lipoxygenase (Glycine max, UniProt P08170); assay: Soybean lipoxygenase inhibition in vitro; assay type: biochemical
T1 construct: purchased Sigma Chemical, Co. (St. Louis, MO, USA)
T1 sequence (P08170 1-839): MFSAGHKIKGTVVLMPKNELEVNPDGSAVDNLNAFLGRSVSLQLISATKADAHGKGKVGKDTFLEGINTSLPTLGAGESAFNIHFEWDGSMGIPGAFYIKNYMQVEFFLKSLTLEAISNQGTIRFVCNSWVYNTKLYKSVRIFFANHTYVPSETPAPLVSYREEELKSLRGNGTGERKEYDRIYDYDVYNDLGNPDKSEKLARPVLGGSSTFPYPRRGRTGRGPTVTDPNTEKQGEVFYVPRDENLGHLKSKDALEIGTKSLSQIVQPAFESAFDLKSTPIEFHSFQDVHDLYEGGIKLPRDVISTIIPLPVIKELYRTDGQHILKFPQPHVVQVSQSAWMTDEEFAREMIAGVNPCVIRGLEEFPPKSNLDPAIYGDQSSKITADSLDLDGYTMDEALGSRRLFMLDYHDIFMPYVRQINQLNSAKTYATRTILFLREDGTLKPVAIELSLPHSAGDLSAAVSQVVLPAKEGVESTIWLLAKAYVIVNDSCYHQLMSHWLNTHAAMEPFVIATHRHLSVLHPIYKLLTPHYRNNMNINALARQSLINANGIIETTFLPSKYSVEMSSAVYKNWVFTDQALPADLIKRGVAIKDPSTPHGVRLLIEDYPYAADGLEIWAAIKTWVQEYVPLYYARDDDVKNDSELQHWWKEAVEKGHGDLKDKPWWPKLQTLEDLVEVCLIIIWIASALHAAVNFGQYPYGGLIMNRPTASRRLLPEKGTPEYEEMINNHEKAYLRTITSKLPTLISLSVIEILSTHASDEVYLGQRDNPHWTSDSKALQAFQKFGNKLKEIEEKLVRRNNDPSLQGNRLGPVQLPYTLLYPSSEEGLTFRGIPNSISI
Procedure: DMSO solution of the tested compound was incubated with sodium linoleate (0.1 mM) and 0.2 mL of soybean lipoxygenase solution (1/9 × 10^−4 w/v in saline) in buffer pH 9 (tris) and at room temperature. […] The results are given in Table 1 expressed as IC50 values or % inhibition at 100 μM.

[3] = tested on: esterase; assay: In vitro esterase activity on hybrids; assay type: in vitro ADME; conditions: 1 mM, phosphate buffer pH 7.8, 37 °C, 90 min and 24 h
Procedure: Representative hybrid molecules are subjected to an esterase activity in vitro. 100 μL of 1 mg/mL 0.001 N hydrochloric acid of esterase solution was added to 1,250 μL of phosphate buffer (0.1 M) pH 7.8 including the tested compounds (150 μL in DMSO, final concentration 1 mM) and incubated at 37 °C for 90 min. The incubated solution was allowed to set at room temperature. Then, the absorption was measured at 256 nm. The measurement was repeated after 24 h of incubation at 37 °C.

[4] = In vitro stability under acidic and basic conditions; assay type: physicochemical; conditions: pH 3, 4.5 and 9, 37 °C, 24 h
Procedure: In an attempt to mimic the acidic/basic conditions in the gastrointestinal route, measurements at pH: (i) 3; (ii) 4.5 and (iii) 9 were performed. The pH value was adjusted with the appropriate buffer (CH3COONa/CH3COOH) to 4.5 and 3 and Tris to pH 9. 20 μL of the tested compounds in DMSO and buffer 980 μL (4.5 or 3 pH) incubated at 37 °C for 24 h. The stability of the compounds was monitored chromatographically after 3 and 9 h. After 24 h, the incubated solution (in all cases) was treated with chloroform (1 mL). The organic layer was analyzed spectrophotometrically.

[5] = tested on: sciatic nerve crush; assay: Flat runway test after sciatic nerve crush; assay type: in vivo, Wistar rats; parameters: key: 0: No movement; 1: Mild movement; 2: Walking with mild deficit; 3: Nearly normal; conditions: crushed animals treated with 2a, day 1 to day 21
Procedure: (§1) The locomotor function recovery was examined through the flat runway test, the inclined plane runway test, the grid walking test and the Sciatic Functional Index (SFI) calculation.
(§2) One day prior to the surgery and the behavioral testing, Wistar rats were handled by the investigators and introduced to the testing environment for a brief period of time. Rats were anesthetized with chloral hydrate 4.5% (1 mL/100 g). […] After the exposure, the nerve was crushed once for 30 s at standardized force. The muscle was reapproximated and the skin incision was closed using 6 to 0 sutures. The examination of the loss of sensory and motor function in the operated limb established the crush completeness. Digits in the operated limb were pinched with a blunt forceps. Absence of foot withdrawal and vocalization was recorded as loss of sensory and motor function. Animals were placed under a heating lamp until they recovered from the anesthesia and they returned to their home cages.
(§3) The tested solutions were freshly prepared on surgery day (day 0).
(§4) The animals were subjected to a locomotor testing one day before the surgery and on the 1st, 8th, 15th and 22nd day after the sciatic nerve injury. The day of the surgery is considered as day 0 [36, 37, 38].
Rats were trained to walk on a wooden board (1 m × 15 cm) for 120 s. The hindlimb movement was assessed with the scoring mentioned before.

[6] = tested on: sciatic nerve crush; assay: Recovery of motor and sensory functions after sciatic nerve crush; assay type: in vivo, Wistar rats; conditions: adult rats, intraperitoneally after the compression of the nerve
Procedure: as §1, §2, §3, §4

CC(=O)Nc1ccc(OC(=O)/C=C/c2cccc(Oc3ccccc3)c2)cc1 [Compound 2a, (E)-4-Acetamidophenyl 3-(3-phenoxyphenyl)acrylate]
RM (±S.D.) [1]: 0.276 ± 0.006
IC50 [2]: 100 µM
hydrolysis of the ester group by esterase [3]: hydrolyzed
stability under acidic and basic conditions [4]: confirmed the stability
Flat runway score (movement in hindlimb) [5]: 3
recovering motor and sensory functions [6]: effective in recovering motor and sensory functions
